Values quoted from earlier work as cited in patent US20210319872A1, “DRUG AND DEVICE COMBINATION PRODUCTS WITH IMPROVED SAFETY AND EFFICACY PROFILES” (priority 2016, published 2021).
Where two headings read alike, the source gives them in different places. Each block holds one molecule with its values, some of them ahead of it.

Compound: OCCOCCN1CCN(C2=Nc3ccccc3Sc3ccccc32)CC1 [Seroquel (Quetiapine)]
Abdominal pain (in vivo): Gastrointestinal: Abdominal pain (3% to 7%), Constipation (2% to
Agitation (in vivo): Psychiatric: Agitation (6% to 20%)
Asthenia (in vivo): Neurologic: Asthenia (Up to 10%), Dizziness (8% to 19%),
Backache (in vivo): Musculoskeletal: Backache (3% to 5%)
Dizziness (in vivo): Neurologic: Asthenia (Up to 10%), Dizziness (8% to 19%),
Extrapyramidal disease (in vivo): Extrapyramidal disease (1.1% to 12.9%), Headache (17% to 21%),
Fatigue (in vivo): Other: Fatigue (3% to 14%), Pain (7%)
Headache (in vivo): Extrapyramidal disease (1.1% to 12.9%), Headache (17% to 21%),
Increased appetite (in vivo): 11%), Increased appetite (2% to 12%), Indigestion (2% to 7%),
Increased liver enzymes (in vivo): Hepatic: Increased liver enzymes (1% to 6%)
Indigestion (in vivo): 11%), Increased appetite (2% to 12%), Indigestion (2% to 7%),
Insomnia (in vivo): Insomnia (8% to 12%), Lethargy (1% to 5%), Somnolence (18% to
Lethargy (in vivo): Insomnia (8% to 12%), Lethargy (1% to 5%), Somnolence (18% to
Nasal congestion (in vivo): Respiratory: Nasal congestion (3% to 5%), Pharyngitis (4% to 6%)
Nausea (in vivo): Nausea (Pediatric, 6% to 10%), Vomiting (Pediatric, 7% to 8%),
Neutropenia (in vivo): Hematologic: Agranulocytosis, Leukopenia, Neutropenia (0.3% to
Orthostatic hypotension (in vivo): Orthostatic hypotension (Up to 7%), Tachycardia (Up to 6%)
Pain (in vivo): Other: Fatigue (3% to 14%), Pain (7%)
Pharyngitis (in vivo): Respiratory: Nasal congestion (3% to 5%), Pharyngitis (4% to 6%)
Prolonged QT interval (in vivo): Cardiovascular: Prolonged QT interval (0.1% to less than 1%),
Seizure (in vivo): Neurologic: Seizure (0.05% to 0.5%), Tardive dyskinesia
Serious side effect, Cardiovascular (in vivo): Sudden cardiac death, Syncope (0.3% to 1%)
Serious side effect, Endocrine metabolic (in vivo): Endocrine metabolic: Diabetic ketoacidosis
Serious side effect, Gastrointestinal (in vivo): Gastrointestinal: Pancreatitis
Serious side effect, Hematologic (in vivo): Hematologic: Agranulocytosis, Leukopenia, Neutropenia (0.3% to
Serious side effect, Immunologic (in vivo): Immunologic: Anaphylaxis
Serious side effect, Neurologic (in vivo): Neurologic: Seizure (0.05% to 0.5%), Tardive dyskinesia
Serious side effect, Other (in vivo): Other: Neuroleptic malignant syndrome
Serious side effect, Psychiatric (in vivo): Psychiatric: Suicidal thoughts
Serious side effect, Reproductive (in vivo): Reproductive: Priapism
Serum cholesterol raised (in vivo): Endocrine metabolic: Serum cholesterol raised (7% to 18%), Serum
Serum triglycerides raised (in vivo): triglycerides raised (8% to 28%), Weight gain (3% to 28%)
Somnolence (in vivo): Insomnia (8% to 12%), Lethargy (1% to 5%), Somnolence (18% to
Syncope (in vivo): Sudden cardiac death, Syncope (0.3% to 1%)
Tachycardia (in vivo): Orthostatic hypotension (Up to 7%), Tachycardia (Up to 6%)
Tremor (in vivo): 57%), Tremor (2% to 8%)
Vomiting (in vivo): Nausea (Pediatric, 6% to 10%), Vomiting (Pediatric, 7% to 8%),
Weight gain (in vivo): triglycerides raised (8% to 28%), Weight gain (3% to 28%)
Xerostomia (in vivo): Xerostomia (Adult, 9% to 44%; pediatric, 4% to 10%)

Compound: CN[C@H]1CC[C@@H](c2ccc(Cl)c(Cl)c2)c2ccccc21 [Sertraline (Zoloft)]
Abnormal ejaculation (in vivo): Reproductive: Abnormal ejaculation (7% to 19%), Reduced libido
Constipation (in vivo): Gastrointestinal: Constipation (3% to 8%), Diarrhea (13% to 24%),
Diarrhea (in vivo): Gastrointestinal: Constipation (3% to 8%), Diarrhea (13% to 24%),
Dizziness (in vivo): Neurologic: Dizziness (6% to 17%), Headache (25%), Insomnia
Fatigue (in vivo): Other: Fatigue (10% to 16%)
Headache (in vivo): Neurologic: Dizziness (6% to 17%), Headache (25%), Insomnia
Indigestion (in vivo): Indigestion (6% to 13%), Nausea (13% to 30%), Nausea and
Insomnia (in vivo): (12% to 28%), Somnolence (2% to 15%), Tremor (5% to 11%)
Nausea (in vivo): Indigestion (6% to 13%), Nausea (13% to 30%), Nausea and
Nausea and vomiting (in vivo): vomiting (2% to 30%)
Reduced libido (in vivo): (up to 11%)
Somnolence (in vivo): (12% to 28%), Somnolence (2% to 15%), Tremor (5% to 11%)
Tremor (in vivo): (12% to 28%), Somnolence (2% to 15%), Tremor (5% to 11%)

Compound: CCN(C(C)=O)c1cccc(-c2ccnc3c(C#N)cnn23)c1 [Sonata (zaleplon)]
Anaphylaxis (in vivo): Immunologic: Anaphylaxis (rare)
Angioedema (in vivo): Other: Angioedema (rare)
Depression (in vivo): Depression (at least 1%), Suicidal behavior, Suicidal thoughts
Dizziness (in vivo): Neurologic: Dizziness (7% to 9%), Headache (30% to 42%)
Drug withdrawal seizure (in vivo): Neurologic: Drug withdrawal seizure (rare)
Headache (in vivo): Neurologic: Dizziness (7% to 9%), Headache (30% to 42%)

Compound: CC(C)NCC(O)c1ccc(NS(C)(=O)=O)cc1 (stereo not shown) [Sotalol (Betapace)]
Bradyarrhythmia (in vivo): 12.3% to 16%; pediatric, 4%), Cardiac dysrhythmia (5%),
Cardiac dysrhythmia (in vivo): 12.3% to 16%; pediatric, 4%), Cardiac dysrhythmia (5%),
Cerebrovascular accident (in vivo): Neurologic: Cerebrovascular accident (1%)
Chest pain (in vivo): Cardiovascular: Chest pain (Adult, 16%; pediatric, 4%),
Congestive heart failure (in vivo): Congestive heart failure (1.2% to 3.3%), Heart failure (5%),
Disturbance of consciousness (in vivo): Neurologic: Disturbance of consciousness (4%), Dizziness (13.1%
Dizziness (in vivo): Neurologic: Disturbance of consciousness (4%), Dizziness (13.1%
Dyspnea (in vivo): Respiratory: Dyspnea (9.2% to 21%)
Fatigue (in vivo): Other: Fatigue (18.9% to 20%)
Heart failure (in vivo): Congestive heart failure (1.2% to 3.3%), Heart failure (5%),
Lightheadedness (in vivo): Lightheadedness (12%)
Rash (in vivo): Dermatologic: Rash (5%)
Torsades de pointes (in vivo): Prolonged QT interval, Torsades de pointes (0.5% to 4%)

Compound: CCCc1nc2c(C)cc(-c3nc4ccccc4n3C)cc2n1Cc1ccc(-c2ccccc2C(=O)O)cc1 [Telmisartan (Micardis))]
Cough (in vivo): Respiratory: Cough (1.6% to 15.6%), Upper respiratory infection
Serious side effects, listed without incidence or only as rare (in vivo): Musculoskeletal: Rhabdomyolysis (rare)
Upper respiratory infection (in vivo): (7%)

Nausea (erythema nodosum leprosum): 4.2%
Rash (erythema nodosum leprosum): nodosum leprosum, 20.8%)
Ischemic heart disease (in vivo): 11.1%
Myocardial infarction (in vivo): Myocardial infarction (1.3%)
Atrial fibrillation, Grade 3/4 (multiple myeloma): 5%
Confusional state (multiple myeloma): 28%
Fever (multiple myeloma): 24%
Indigestion (multiple myeloma): 11%
Leukopenia (multiple myeloma): multiple myeloma, 35%)
Peripheral edema (multiple myeloma): multiple myeloma, 34%)
Pneumonia (multiple myeloma): (multiple myeloma, 15%)
Somnolence (multiple myeloma): ≥ 3%
Tremor (multiple myeloma): 26%)
Weight loss (multiple myeloma): (multiple myeloma, 23%)
Compound: O=C1CCC(N2C(=O)c3ccccc3C2=O)C(=O)N1 (stereo not shown) [Thalomid]
Tremor (erythema nodosum leprosum): Tremor (erythema nodosum leprosum, 4.2%; multiple myeloma,
Serious side effect, Cardiovascular (listed without frequency): Cardiac dysrhythmia
Asthenia (multiple myeloma): 21.9%; multiple myeloma, 24%), Confusional state (multiple
Dizziness (multiple myeloma): 19.2%; multiple myeloma, 23%), Somnolence (erythema nodosum
Dry skin (multiple myeloma): Dermatologic: Dry skin (multiple myeloma, 21%), Rash (erythema
Dyspnea (multiple myeloma): Respiratory: Dyspnea (multiple myeloma, 42%), Pneumonia
Hypocalcemia (multiple myeloma): Endocrine metabolic: Hypocalcemia (multiple myeloma, 72%),
Muscle weakness (multiple myeloma): Musculoskeletal: Muscle weakness (multiple myeloma, 40%)

Neutropenia (in vivo): 2.4%
Compound: Clc1ccccc1CN1CCc2sccc2C1 [Ticlopidine]
